What was measured:
Assay type in all cases: cell-based
[1] = tested on: P. aeruginosa; assay: in vitro agar Petri dish dilution test, P. aeruginosa; conditions: Pseudomonas aeruginosa, 100% growth inhibition
Text: (§1) The compound has antimicrobial utility.

[2] = tested on: S. aureus; assay: in vitro agar Petri dish dilution test, S. aureus; conditions: Staphylococcus aureus, 100% growth inhibition
Text: as §1

[3] = tested on: C. albicans; assay: in vitro agar Petri dish dilution test, C. albicans; conditions: Candida albicans, 100% growth inhibition
Text: as §1

[4] = tested on: T. mentagrophytes; assay: in vitro agar Petri dish dilution test, T. mentagrophytes; conditions: Trichophyton mentagrophytes, 100% growth inhibition
Text: as §1

[5] = tested on: K. pneumoniae M-1 Midland Hospital; assay: in vitro agar Petri dish dilution test, K. pneumoniae M-1 Midland Hospital; conditions: Klebsiella pneumoniae, 100% growth inhibition
Text: as §1

[6] = tested on: P. chrysogenum; assay: in vitro agar Petri dish dilution test, P. chrysogenum; conditions: Penicillium chrysogenum, 100% growth inhibition
Text: as §1

[7] = tested on: A. niger; assay: in vitro agar Petri dish dilution test, A. niger; conditions: Aspergillus niger, 100% growth inhibition
Text: as §1

[8] = tested on: B. subtilis; assay: in vitro agar Petri dish dilution test, B. subtilis; conditions: Bacillus subtilis, 100% growth inhibition
Text: as §1

[9] = tested on: C. pelliculosa; assay: in vitro agar Petri dish dilution test, C. pelliculosa; conditions: Hansenula anomala, 100% growth inhibition
Text: as §1

[10] = tested on: P. pullulans; assay: in vitro agar Petri dish dilution test, P. pullulans; conditions: 100% growth inhibition
Text: as §1

[11] = tested on: Trichoderm Sp. Madison P-42; assay: in vitro agar Petri dish dilution test, Trichoderm Sp. Madison P-42; conditions: 100% growth inhibition
Text: as §1

[12] = tested on: S. marcescens NIH; assay: in vitro agar Petri dish dilution test, S. marcescens NIH; conditions: Serratia marcescens, 100% growth inhibition
Text: as §1

[13] = tested on: Torulopsis Species; assay: in vitro agar Petri dish dilution test, Torulopsis Species; conditions: 100% growth inhibition
Text: as §1

[14] = tested on: A. fumigatus; assay: in vitro agar Petri dish dilution test, A. fumigatus; conditions: Aspergillus fumigatus, 100% growth inhibition
Text: as §1

[15] = tested on: C. albicans NIH; assay: in vitro agar Petri dish dilution test, C. albicans NIH; conditions: Candida albicans, 100% growth inhibition
Text: as §1

[16] = tested on: E. coli ATCC 11229; assay: in vitro agar Petri dish dilution test, E. coli ATCC 11229; conditions: Escherichia coli, ATCC11229, 100% growth inhibition
Text: as §1

Measured: MIC

N#CC=CS(=O)(=O)c1ccc(OC(F)(F)C(Cl)Cl)cc1 [3-((4-(2,2-Dichloro-1,1-difluoroethoxy)phenyl)sulfonyl)-2-propenenitrile]
5 µg/mL: [2]
100 µg/mL: [1] | [5] | [11]
1 µg/mL: [8]
10 µg/mL: [4] | [6] | [7] | [9]
50 µg/mL: all other assays above
